Experimental data taken from PubChem BioAssay AID274 (DTP/NCI, 2004).
Toxic doses and inconclusive results are not listed. Numbered stars: 1 amine (or outer) side, 2 acyl side, 3 side chain; on linkers, the order of the positions; unused ones are H or OH. Bridge positions count the residues as written; N and C are the ends. Square brackets hold non-standard residues; d marks the D form. Peptide text beside a SMILES is read from it. I, II: the chains in the order shown. * marks the point of attachment. Actinocin(1to9) = Cc1c2oc3c(C)ccc(C(=O)[*:2])c3nc-2c(C(=O)[*:1])c(N)c1=O; X2 = CCC(=O)CC1CC(C)CC(C(=O)[*:2])N1[*:1]; NMeV = CN[CH](C(=O)O)C(C)C; X1 = CCCCCCCCC(C)C(=O)*; Aze = O=C(O)[CH]1CCN1; Aib = CC(C)(N)C(=O)O; X3 = CC(CN(C)CCO)N*; Sar = CNCC(=O)O

Tested on: BDF1 mice, Lewis lung carcinoma iv, survival T/C
Test: NCI In Vivo Anticancer Drug Screen. Data for tumor model Lewis Lung Carcinoma (intravenous) in B6D2F1 (BDF1) mice
Settings: endpoint: median survival time, higher = longer survival
Procedure: The antitumor activity of compounds was measured in mice bearing transplantable tumors. Survival or tumor size were measured and the results are expressed as the measurement made in the treated group (T) divided by the measurement made in the vehicle treated control group (C). The tumor model used in this assay is Lewis Lung Carcinoma (intravenous) in B6D2F1 (BDF1) mice

[1] = dose: 6.25 mg/kg/injection, schedule: Q01DX009 (ip), vehicle: saline with Tween-80
[2] = dose: 25.0 mg/kg/injection, schedule: Q01DX009 (ip), vehicle: saline with Tween-80
[3] = dose: 25.0 mg/kg/injection, schedule: Q01DX009 (ip), vehicle: saline
[4] = dose: 50.0 mg/kg/injection, schedule: Q01DX009 (ip), vehicle: saline
[5] = dose: 100.0 mg/kg/injection, schedule: Q01DX009 (ip), vehicle: saline
[6] = dose: 200.0 mg/kg/injection, schedule: Q01DX009 (ip), vehicle: saline
[7] = dose: 12.5 mg/kg/injection, schedule: Q01DX009 (ip), vehicle: saline
[8] = dose: 3.13 mg/kg/injection, schedule: Q01DX009 (ip), vehicle: saline with Tween-80
[9] = dose: 12.5 mg/kg/injection, schedule: Q01DX009 (ip), vehicle: saline with Tween-80
[10] = dose: 50.0 mg/kg/injection, schedule: Q01DX009 (ip), vehicle: saline with Tween-80
[11] = dose: 100.0 mg/kg/injection, schedule: Q01DX009 (ip), vehicle: saline with Tween-80
[12] = dose: 200.0 mg/kg/injection, schedule: Q01DX009 (ip), vehicle: saline with Tween-80

Cc1c2oc3c(C)ccc(C(=O)NC4C(=O)NC(C(C)C)C(=O)N5CCCC5C(=O)N(C)CC(=O)N(C)C(C(C)C)C(=O)OC4C)c3nc-2c(C(=O)NC2C(=O)NC(C(C)C)C(=O)N3CCC3C(=O)N(C)CC(=O)N(C)C(C(C)C)C(=O)OC2C)c(N)c1=O (stereo not given) (I: TV[Aze][Sar][NMeV] / II: TVP[Sar][NMeV]; ester I:1-I:C, II:1-II:C; linker I:N-II:N via Actinocin(1to9); configuration not given here)
T/C (dose: 37.5 micrograms/kg/injection, schedule: Q01DX009 (ip), vehicle: saline + alcohol): 105 % of control
T/C (dose: 75.0 micrograms/kg/injection, schedule: Q01DX009 (ip), vehicle: saline + alcohol): 113 % of control
T/C (dose: 194.0 micrograms/kg/injection, schedule: Q04DX003 (ip), vehicle: saline + alcohol): 92 % of control
T/C (dose: 270.0 micrograms/kg/injection, schedule: Q04DX003 (ip), vehicle: saline + alcohol): 95 % of control
T/C (dose: 324.0 micrograms/kg/injection, schedule: Q04DX003 (ip), vehicle: saline + alcohol): 105 % of control
T/C (dose: 450.0 micrograms/kg/injection, schedule: Q04DX003 (ip), vehicle: saline + alcohol): 104 % of control
T/C (dose: 540.0 micrograms/kg/injection, schedule: Q04DX003 (ip), vehicle: saline + alcohol): 105 % of control
T/C (dose: 648.0 micrograms/kg/injection, schedule: Q01DX001 (ip), vehicle: saline + alcohol): 94 % of control
T/C (dose: 1080.0 micrograms/kg/injection, schedule: Q01DX001 (ip), vehicle: saline + alcohol): 94 % of control

COc1cc2c(c(OC)c1OC)-c1ccc(OC)c(=O)cc1[C@@H](NC(C)=O)CC2
T/C (dose: 0.19 mg/kg/injection, schedule: Q01DX009 (ip), vehicle: saline): 102 % of control
T/C (dose: 0.38 mg/kg/injection, schedule: Q01DX009 (ip), vehicle: saline): 109 % of control

O=C1C(=O)c2cccnc2-c2ncccc21
T/C (dose: 0.78 mg/kg/injection, schedule: Q01DX009 (ip), vehicle: Klucel (hydroxypropylcellulose) (HPC)): 116 % of control
T/C (dose: 1.56 mg/kg/injection, schedule: Q01DX009 (ip), vehicle: Klucel (hydroxypropylcellulose) (HPC)): 91 % of control
T/C (dose: 3.12 mg/kg/injection, schedule: Q01DX009 (ip), vehicle: Klucel (hydroxypropylcellulose) (HPC)): 100 % of control

Nc1nnc[se]1
T/C (dose: 3.12 mg/kg/injection, schedule: Q01DX009 (ip), vehicle: saline with Tween-80): 103 % of control
T/C [1]: 111 % of control
T/C [2]: 118 % of control

COC(C(=O)C(O)C(C)O)C1CC2C=C3C=C(OC4CC(OC5CC(O)C(OC)C(C)O5)C(OC(C)=O)C(C)O4)C(C)C(=O)C3=C(O)C2=C(O)C1OC1CC(OC2CC(OC3CC(C)(O)C(O)C(C)O3)C(O)C(C)O2)C(O)C(C)O1 (stereo not given)
T/C (dose: 0.06 mg/kg/injection, schedule: Q01DX009 (ip), vehicle: saline with Tween-80): 96 % of control
T/C (dose: 0.13 mg/kg/injection, schedule: Q01DX009 (ip), vehicle: saline with Tween-80): 101 % of control
T/C (dose: 0.25 mg/kg/injection, schedule: Q01DX009 (ip), vehicle: saline with Tween-80): 114 % of control
T/C (dose: 0.5 mg/kg/injection, schedule: Q01DX009 (ip), vehicle: saline with Tween-80): 104 % of control
T/C (dose: 1.0 mg/kg/injection, schedule: Q01DX009 (ip), vehicle: saline with Tween-80): 101 % of control
T/C (dose: 2.0 mg/kg/injection, schedule: Q01DX009 (ip), vehicle: saline with Tween-80): 92 % of control

CCN(CC)CCOCCO
T/C [3]: 110 % of control
T/C [4]: 99 % of control
T/C [5]: 101 % of control
T/C [6]: 99 % of control

CCOC(=O)C1=C(C#N)C2(CCC(OCc3ccccc3)CC2)C(=O)O1 (stereo not given)
T/C [7]: 94 % of control
T/C [3]: 95 % of control
T/C [4]: 98 % of control
T/C [5]: 106 % of control
T/C [6]: 114 % of control
T/C (dose: 400.0 mg/kg/injection, schedule: Q01DX009 (ip), vehicle: saline): 89 % of control

COC(=O)c1cc2cc3c(c(O)c2c(=O)o1)OC1(Cc2c(O)c4c(c(O)c2O1)C(=O)C(OC)CC4=O)CC3O (stereo not given)
T/C [8]: 102 % of control
T/C [1]: 110 % of control
T/C [9]: 122 % of control
T/C [2]: 120 % of control

CC(=O)OCC1OC(n2ncc(=O)[nH]c2=O)C(OC(C)=O)C1OC(C)=O (stereo not given)
T/C (dose: 100.0 mg/kg/injection, schedule: Q01DX009 (ip), vehicle: Klucel (hydroxypropylcellulose) (HPC)): 100 % of control
T/C (dose: 200.0 mg/kg/injection, schedule: Q01DX009 (ip), vehicle: Klucel (hydroxypropylcellulose) (HPC)): 109 % of control
T/C (dose: 400.0 mg/kg/injection, schedule: Q01DX009 (ip), vehicle: Klucel (hydroxypropylcellulose) (HPC)): 107 % of control

O=C(O)CC(NC(=O)CP(=O)(O)O)C(=O)O.[NH-]C1CCCCC1[NH-].[Pt+2] (stereo not given)
T/C (dose: 0.4 mg/kg/injection, schedule: Q01DX009 (ip), vehicle: dextrose): 90 % of control
T/C (dose: 0.8 mg/kg/injection, schedule: Q01DX009 (ip), vehicle: dextrose): 110 % of control
T/C (dose: 1.6 mg/kg/injection, schedule: Q01DX009 (ip), vehicle: dextrose): 99 % of control
T/C (dose: 3.0 mg/kg/injection, schedule: Q01DX009 (ip), vehicle: dextrose): 108 % of control
T/C (dose: 3.2 mg/kg/injection, schedule: Q01DX009 (ip), vehicle: dextrose): 103 % of control
T/C (dose: 6.25 mg/kg/injection, schedule: Q01DX009 (ip), vehicle: dextrose): 110 % of control

CCC(C)n1ncc2c(N(C)C)ncnc21 (stereo not given)
T/C [3]: 102 % of control
T/C [4]: 98 % of control

CCCCCCCCC(C)C(=O)N1CCCC1C(=O)N1C(CC(=O)CC)CC(C)CC1C(=O)NC(C)C(=O)NC(C)(C)C(=O)NC(C)(C)C(=O)NC(C(=O)NC(C)C(=O)NC(C)(C)C(=O)NC(C)(C)C(=O)NC(C)CN(C)CCO)C(C)CC (stereo not given) (X1-P[X2]A[Aib][Aib]IA[Aib][Aib]-X3; configuration not given here)
T/C (dose: 0.31 mg/kg/injection, schedule: Q01DX009 (ip), vehicle: Klucel (hydroxypropylcellulose) (HPC)): 105 % of control
T/C (dose: 0.62 mg/kg/injection, schedule: Q01DX009 (ip), vehicle: Klucel (hydroxypropylcellulose) (HPC)): 97 % of control
T/C (dose: 1.25 mg/kg/injection, schedule: Q01DX009 (ip), vehicle: Klucel (hydroxypropylcellulose) (HPC)): 99 % of control
T/C (dose: 2.5 mg/kg/injection, schedule: Q01DX009 (ip), vehicle: Klucel (hydroxypropylcellulose) (HPC)): 104 % of control
T/C (dose: 5.0 mg/kg/injection, schedule: Q01DX009 (ip), vehicle: Klucel (hydroxypropylcellulose) (HPC)): 104 % of control

Cc1cn(C2CC(O)C(CO)O2)c(=O)[nH]c1=O (stereo not given)
T/C [9]: 89 % of control
T/C [10]: 88 % of control
T/C [11]: 94 % of control
T/C [12]: 98 % of control

OCCNCCNc1ccnc2cc(Cl)ccc12
T/C [7]: 115 % of control
T/C [3]: 94 % of control
T/C [4]: 107 % of control
T/C [5]: 98 % of control

CN(C)/N=N/c1nc[nH]c1C(N)=O
T/C (dose: 16.0 mg/kg/injection, schedule: Q01DX009 (ip), vehicle: Klucel (hydroxypropylcellulose) (HPC)): 102 % of control
T/C (dose: 25.0 mg/kg/injection, schedule: Q01DX009 (ip), vehicle: Klucel (hydroxypropylcellulose) (HPC)): 150 % of control
T/C (dose: 32.0 mg/kg/injection, schedule: Q01DX009 (ip), vehicle: Klucel (hydroxypropylcellulose) (HPC)): 109 % of control
T/C (dose: 50.0 mg/kg/injection, schedule: Q01DX009 (ip), vehicle: Klucel (hydroxypropylcellulose) (HPC)): 118 % of control
T/C (dose: 128.0 mg/kg/injection, schedule: Q01DX009 (ip), vehicle: Klucel (hydroxypropylcellulose) (HPC)): 117 % of control
T/C (dose: 256.0 mg/kg/injection, schedule: Q01DX009 (ip), vehicle: Klucel (hydroxypropylcellulose) (HPC)): 123 % of control

Nc1nc(/C=C(/O)c2ccccc2)c2ncn(C3OC(CO)C(O)C3O)c2n1 (stereo not given)
T/C [7]: 109 % of control
T/C [3]: 107 % of control
T/C [4]: 102 % of control
T/C [5]: 104 % of control

COc1cc(Cl)ccc1C
T/C [9]: 111 % of control
T/C [2]: 107 % of control
T/C [10]: 97 % of control
T/C [11]: 108 % of control
T/C [12]: 102 % of control
T/C (dose: 400.0 mg/kg/injection, schedule: Q01DX009 (ip), vehicle: saline with Tween-80): 98 % of control

OCCN1CCN(CC/C=C2/c3ccccc3Sc3ccc(C(F)(F)F)cc32)CC1
T/C (dose: 1.56 mg/kg/injection, schedule: Q01DX009 (ip), vehicle: saline with Tween-80): 98 % of control
T/C [8]: 97 % of control
T/C [9]: 97 % of control
